Source: paper PMC10292217, “Gene-nutrient interactions that impact magnesium homeostasis increase risk for neural tube defects in mice exposed to dolutegravir” (Frontiers in Cell and Developmental Biology, 2023)
Marks after values point to notes of the source that are not given here.

Experiments:
[1] = system: P19C5 mouse embryonal carcinoma cell; design: method as in Kirkwood-Johnson et al., 2021; conditions: exposure within the first 1-2 days; ref Kirkwood-Johnson et al., 2021; cited from earlier work
rats = conditions: 2020, cited from earlier work
rabbits = conditions: 2020, cited from earlier work
LM/Bc mice = assay: DTG-NTD susceptibility, embryo phenotyping on GD 9.5, LM/Bc dams; assay type: in vivo, mouse
From the text: (§1) Breeding colonies and experimental mice were housed in Thoren micro-isolator cages with autoclaved corncob bedding and maintained on a 12-h light-dark cycle in climate-controlled AAALAC-accredited animal facilities at Creighton University. Mice were given ad libitum access to autoclaved water and pelleted irradiated rodent chow. For timed matings, nulliparous female mice were placed with a male overnight (1 male:2-3 females). The presence of a vaginal plug the next morning was considered GD 0.5. Plugged females were weighed, placed into a separate cage, and randomly assigned to a treatment group. All animal procedures were performed in accordance with the Public Health Service (PHS) policy on Humane Care and Use of Laboratory Animals and approved by the Creighton University Institutional Animal Care and Use Committee (IACUC).
(§2) Dolutegravir (CAS 1051375-16-6, GSK1349572) was purchased from MedKoo Biosciences (Morrisville, NC). Pregnant mice were dosed with vehicle (dimethylsulfoxide: Solutol®: 50 mM N-methylglucamine in 3% mannitol [1:1:8, v:w:v]) ([Moss et al., 2015]) or DTG (500 mg/kg or 750 mg/kg) by daily oral gavage beginning on GD 0.5 and continuing until the day of sacrifice (GD 9.5). All treatments were administered in a volume of 0.1 mL/10 g bodyweight (bwt).
(§3) The SWV and LM/Bc breeding colonies have been maintained on Envigo Rodent Chow #8904 (a soy protein-based irradiated diet) for >20 years. C3H/HeJ and C57BL/6J mice (6–10 weeks old) were immediately placed on Envigo #8904 upon arrival at Creighton University and were maintained on this diet for a minimum of 1 month prior to analysis of basal plasma and urine cations. The National Research Council (NRC) estimate for the minimum Mg^2+ requirement in adult mice is […] of diet (0.05%). Magnesium in standard rodent diets ranges between […]; the Envigo #8904 soy diet contains .3% Mg^2+ by weight ([…] the NRC requirement) and was therefore considered a ‘high’ Mg^2+ diet. Sources of Mg^2+ in the soy diet include magnesium oxide (∼20%) and Mg^2+ found naturally in grain ingredients (∼80%); it was therefore not possible to remove Mg^2+ to create a soy-based version that was Mg^2+ deficient. To test the hypothesis that low maternal plasma Mg^2+ prior to conception would increase susceptibility to DTG-induced NTDs, it was necessary to switch to casein-based purified ingredient diets with defined levels of Mg^2+ added back. The following casein-based purified ingredient diets were selected as experimental diets: TD.120,574 high Mg^2+ diet (.3% Mg^2+ oxide added to match the .3% high Mg^2+ soy-based diet); TD.98341 control Mg^2+ diet with 0.05% Mg oxide added back to match the NRC requirement; and TD.93106 Mg^2+-deficient diet (<.003%, no Mg^2+ added back). The purified casein diets met or exceeded the NRC requirements for all other minerals and vitamins, including folic acid (Supplementary Table S1: Diet Comparison). Thus, the 4 experimental diets were as follows: 1) high Mg^2+ (.3%) soy diet; 2) high Mg^2+ ([…]) casein diet; 3) control Mg^2+ (.05%) casein diet; and 4) deficient Mg^2+ (<.003%) casein diet. […] Our initial DTG teratology studies were performed in mice on the high Mg^2+ soy diet. However, our objective in the second set of experiments was to reduce pre-conception plasma Mg^2+ levels prior to DTG exposure. To accomplish this objective, weaned female mice were placed on either the high Mg^2+ casein diet or one of the 2 casein-based experimental diets with reduced Mg^2+ (control or deficient) for a minimum of 2 weeks. After this minimum period of acclimation to the experimental casein-based diets, blood and urine samples were collected for Inductively Coupled Plasma Mass Spectrometry (ICP-MS) determination of Mg^2+ (and other cations).
(§4) Pregnant dams were anesthetized with isoflurane and sacrificed by cervical dislocation on GD 9.5. […]

C57BL/6J mice = assay: DTG-NTD susceptibility, embryo phenotyping on GD 9.5, C57BL/6J dams; assay type: in vivo, mouse
From the text: as §1, §2, §3, §4

SWV mice = assay: DTG-NTD susceptibility, embryo phenotyping on GD 9.5, SWV dams; assay type: in vivo, mouse
From the text: as §1, §2, §3, §4

[2] = preclinical studies, ref Stanislaus et al.
[3] = control Mg2+ (0.05%) casein diet, DTG500
[4] = control Mg2+ (0.05%) casein diet, DTG750
[5] = high Mg2+ (0.3%) casein diet, DTG750
[6] = high Mg2+ (0.3%) soy diet, DTG 750 mg/kg/d oral GD 0.5-GD 9.5, average % (SD)
[7] = high Mg2+ (0.3%) soy diet, DTG 750 mg/kg/d oral GD 0.5-GD 9.5, mean (SD)
[8] = high Mg2+ (0.3%) soy diet, DTG 750 mg/kg/d oral GD 0.5-GD 9.5, mean (SD) per litter
[9] = high Mg2+ soy diet, DTG500, n = 7 litters
[10] = high Mg2+ (0.3%) soy diet, DTG 750 mg/kg/d oral GD 0.5-GD 9.5
[11] = Mg2+-deficient (<0.003%) casein diet, DTG750

**Q.** Which “growth and axial elongation” value [1] does the source give for `C[C@@H]1CCO[C@H]2Cn3cc(C(=O)NCc4ccc(F)cc4F)c(=O)c(O)c3C(=O)N12` [DTG, Dolutegravir] here?
**A.** concentration-dependent inhibition of growth and axial elongation

**Q.** And the “DTG-related maternal or developmental toxicity” value (rats; oral doses up to 1000 mg/kg/d, GD 6 to GD 17, ref Stanislaus et al.)?
**A.** no significant evidence

**Q.** And the NOAEL (rats; [2])?
**A.** 1000 mg/kg/day

**Q.** What about the “DTG-related maternal or developmental toxicity” value (rabbits; oral doses up to 1000 mg/kg/d, GD 6 to GD 18, ref Stanislaus et al.) of the same molecule?
**A.** no significant evidence

**Q.** And the NOAEL (rabbits; [2])?
**A.** 1000 mg/kg/day

**Q.** And the NTD-affected litters (LM/Bc mice; [3])?
**A.** 62%

**Q.** And the “NTD-affected litters / litters examined” value (LM/Bc mice; [3])?
**A.** 8/13

**Q.** And the “exencephalic embryos per litter” value (LM/Bc mice; [3])?
**A.** 1 to 5

**Q.** And the “total NTDs” value (LM/Bc mice; control Mg2+ (0.05%) casein diet, DTG500, of 116 implants)?
**A.** 19

**Q.** What about the NTD-affected litters (LM/Bc mice; [4]) of the same molecule?
**A.** 85%

**Q.** What about the “NTD-affected litters / litters examined” value (LM/Bc mice; [4]) of the same molecule?
**A.** 11/13

**Q.** What about the “exencephalic embryos per litter” value (LM/Bc mice; [4]) of the same molecule?
**A.** 1 to 6

**Q.** What about the “total NTDs” value (LM/Bc mice; control Mg2+ (0.05%) casein diet, DTG750, of 105 implants) of the same molecule?
**A.** 33

**Q.** And the NTD-affected litters (LM/Bc mice; [5])?
**A.** 19%

**Q.** And the “exencephalic embryos per affected litter” value (LM/Bc mice; [5])?
**A.** 1

**Q.** And the “mean rate NTDs/litter” value (LM/Bc mice; [5])?
**A.** 2%

**Q.** What about the “NTD-affected litters / litters examined” value (LM/Bc mice; high Mg2+ (0.3%) casein diet, DTG750, 90 implants total) of the same molecule?
**A.** 3/16

**Q.** What about the “Dev delay/implants, index value” (LM/Bc mice; [6]) of the same molecule?
**A.** 8.1% (17.76)

**Q.** And the “NTDs/embryos, index value” (LM/Bc mice; [6])?
**A.** 20.9% (23.65)^**

**Q.** And the “NTDs/implants, index value” (LM/Bc mice; [6])?
**A.** 17.7% (20.63)^**

**Q.** What about the “Resorptions/implants, index value” (LM/Bc mice; [6]) of the same molecule?
**A.** 11.5% (15.75)

**Q.** And the Implants per litter (LM/Bc mice; [7])?
**A.** 8.74 (2.47)

**Q.** What about the Resorptions per litter (LM/Bc mice; [7]) of the same molecule?
**A.** 0.95 (1.27)

**Q.** What about the Dev. delayed (LM/Bc mice; [8]) of the same molecule?
**A.** 0.58 (0.96)

**Q.** And the NTDs (LM/Bc mice; [8])?
**A.** 1.47 (1.74)^**

**Q.** And the Total viable embryos (LM/Bc mice; [8])?
**A.** 7.79 (2.76)

**Q.** And the NTDs observed (LM/Bc mice; high Mg2+ soy diet, DTG 500 mg/kg/d (DTG500), n = 7 litters)?
**A.** No NTDs

**Q.** What about the developmental delays (LM/Bc mice; [9]) of the same molecule?
**A.** no developmental delays

**Q.** And the “implants (total)” value (LM/Bc mice; [9])?
**A.** 71

**Q.** What about the “resorptions (total)” value (LM/Bc mice; [9]) of the same molecule?
**A.** 9

**Q.** And the “viable embryos developmentally normal (total)” value (LM/Bc mice; [9])?
**A.** 62

**Q.** What about the “NTD-affected litters / litters examined” value (LM/Bc mice; high Mg2+ soy diet, DTG750) of the same molecule?
**A.** 12/19

**Q.** What about the NTDs/affected litter (LM/Bc mice; high Mg2+ soy diet, DTG750) of the same molecule?
**A.** 1–6

**Q.** And the “total pups with exencephaly” value (LM/Bc mice; high Mg2+ soy diet, DTG750, out of 166 total implants)?
**A.** 28

**Q.** What about the Affected litters % (C57BL/6J mice; [10]) of the same molecule?
**A.** 0.0%

**Q.** What about the “Dev delay/implants, index value” (C57BL/6J mice; [6]) of the same molecule?
**A.** 1.9% (4.15)

**Q.** What about the “NTDs/embryos, index value” (C57BL/6J mice; [6]) of the same molecule?
**A.** 0.0% (0.00)

**Q.** What about the “NTDs/implants, index value” (C57BL/6J mice; [6]) of the same molecule?
**A.** 0.0% (0.00)

**Q.** And the “Resorptions/implants, index value” (C57BL/6J mice; [6])?
**A.** 5.3% (9.30)

**Q.** What about the Implants per litter (C57BL/6J mice; [7]) of the same molecule?
**A.** 9.80 (1.48)

**Q.** And the Resorptions per litter (C57BL/6J mice; [7])?
**A.** 0.50 (0.85)

**Q.** What about the Dev. delayed (C57BL/6J mice; [8]) of the same molecule?
**A.** 0.20 (0.42)

**Q.** What about the NTDs (C57BL/6J mice; [8]) of the same molecule?
**A.** 0.00 (0.00)

**Q.** And the Total viable embryos (C57BL/6J mice; [8])?
**A.** 9.30 (1.77)

**Q.** And the NTDs observed (C57BL/6J mice; high Mg2+ soy diet, DTG750, n = 10 litters)?
**A.** No NTDs

**Q.** And the NTD-affected litters (SWV mice; [11])?
**A.** 75%

**Q.** What about the “NTD-affected litters / litters examined” value (SWV mice; [11]) of the same molecule?
**A.** 6/8

**Q.** And the “NTDs per affected litter” value (SWV mice; [11])?
**A.** 1-4

**Q.** And the “total NTDs” value (SWV mice; [11])?
**A.** 11

**Q.** And the Affected litters % (SWV mice; [10])?
**A.** 7.7%

**Q.** What about the “Dev delay/implants, index value” (SWV mice; [6]) of the same molecule?
**A.** 2.0% (3.19)

**Q.** And the “NTDs/embryos, index value” (SWV mice; [6])?
**A.** 1.8% (6.40)

**Q.** And the “NTDs/implants, index value” (SWV mice; [6])?
**A.** 1.6% (5.94)

**Q.** And the “Resorptions/implants, index value” (SWV mice; [6])?
**A.** 5.0% (7.62)

**Q.** What about the Implants per litter (SWV mice; [7]) of the same molecule?
**A.** 13.15 (2.12)^**

**Q.** What about the Resorptions per litter (SWV mice; [7]) of the same molecule?
**A.** 0.62 (0.87)

**Q.** And the Dev. delayed (SWV mice; [8])?
**A.** 0.31 (0.48)

**Q.** What about the NTDs (SWV mice; [8]) of the same molecule?
**A.** 0.23 (0.83)

**Q.** What about the Total viable embryos (SWV mice; [8]) of the same molecule?
**A.** 12.54 (2.37)^**

**Q.** What about the “NTD-affected litters / litters examined” value (SWV mice; high Mg2+ soy diet, DTG750) of the same molecule?
**A.** 1/13

**Q.** What about the “total pups with exencephaly” value (SWV mice; high Mg2+ soy diet, DTG750) of the same molecule?
**A.** 3
